Assays:
Type in all cases: in vivo
Abutilon theophrasti [1] = assay: Post-emergence herbicidal action against harmful plants; conditions: 80 g/ha, visual score after about 3 weeks vs untreated controls
Protocol: (§1) Seeds of monocotyledonous and dicotyledonous weed and crop plants are laid out in sandy loam in wood-fiber pots, covered with soil and cultivated in a greenhouse under good growth conditions. 2 to 3 weeks after sowing, the trial plants are treated at the one-leaf stage. The compounds of the invention, formulated in the form of wettable powders (WP) or as emulsion concentrates (EC), are then sprayed onto the green parts of the plants in the form of an aqueous suspension or emulsion at a water application rate equating to 600 to 800 I/ha, with addition of 0.2% wetting agent. After the trial plants have been left to stand in a greenhouse under optimal growth conditions for about 3 weeks, the efficacy of the formulations is scored visually in comparison to untreated controls (herbicidal action in percent (%): 100% efficacy=the plants have died, 0% efficacy=like control plants). In this trial, for example, compound no.

Stellaria media [2] = assay: as above; conditions: 80 g/ha, visual score after about 3 weeks vs untreated controls
Protocol: as §1

Veronica persica [3] = assay: as above; conditions: 80 g/ha, visual score after about 3 weeks vs untreated controls
Protocol: as §1

Viola tricolor [4] = assay: as above; conditions: 80 g/ha, visual score after about 3 weeks vs untreated controls
Protocol: as §1

Ipomoea purpurea [5] = assay: as above; conditions: 80 g/ha, visual score after about 3 weeks vs untreated controls
Protocol: as §1

Abutilon theophrasti [6] = assay: Pre-emergence herbicidal action against harmful plants; conditions: 320 g/ha, visual score after 3 weeks vs untreated controls
Excerpt: (§2) Seeds of monocotyledonous and dicotyledonous weed plants and crop plants are laid out in wood-fiber pots in sandy loam and covered with soil. The compounds of the invention, formulated in the form of wettable powders (WP) or as emulsion concentrates (EC), are then applied to the surface of the covering soil in the form of an aqueous suspension or emulsion at a water application rate equating to 600 to 800 l/ha, with addition of 0.2% wetting agent. After the treatment, the pots are placed in a greenhouse and kept under good growth conditions for the trial plants. The damage to the trial plants is scored visually after a trial duration of 3 weeks by comparison with untreated controls (herbicidal activity in percent (%): 100% efficacy=the plants have died, 0% efficacy=like control plants). In this trial, for example, compound no.

Stellaria media [7] = assay: as above; conditions: 320 g/ha, visual score after 3 weeks vs untreated controls
Excerpt: as §2

Cyperus esculentus = assay: as above; conditions: 320 g/ha, visual score after 3 weeks vs untreated controls
Excerpt: as §2

Amaranthus retroflexus = assay: as above; conditions: 320 g/ha, visual score after 3 weeks vs untreated controls
Excerpt: as §2

Veronica persica [8] = assay: as above; conditions: 320 g/ha, visual score after 3 weeks vs untreated controls
Excerpt: as §2

Viola tricolor [9] = assay: as above; conditions: 320 g/ha, visual score after 3 weeks vs untreated controls
Excerpt: as §2

Ipomoea purpurea [10] = assay: as above; conditions: 320 g/ha, visual score after 3 weeks vs untreated controls
Excerpt: as §2

Cn1ncc(-c2ccc(C(F)(F)F)c(=O)n2C)c(O)c1=O [1-4, 4-hydroxy-2-methyl-5-(1-methyl-3-(trifluoromethyl)pyrid-2-on-6-yl)-pyridazin-3-one]
at least 80%: herbicidal action in percent (efficacy) (Abutilon theophrasti [1]) | herbicidal action in percent (efficacy) (Stellaria media [2]) | herbicidal action in percent (efficacy) (Veronica persica [3]) | herbicidal action in percent (efficacy) (Viola tricolor [4]) | herbicidal action in percent (efficacy) (Ipomoea purpurea [5]) | herbicidal activity in percent (efficacy) (Abutilon theophrasti [6]) | herbicidal activity in percent (efficacy) (Stellaria media [7]) | herbicidal activity in percent (efficacy) (Cyperus esculentus) | herbicidal activity in percent (efficacy) (Amaranthus retroflexus) | herbicidal activity in percent (efficacy) (Veronica persica [8]) | herbicidal activity in percent (efficacy) (Viola tricolor [9]) | herbicidal activity in percent (efficacy) (Ipomoea purpurea [10])

— patent US20160272613A1, “Pyridazinone Derivatives and their use as Herbicides” (BAYER CROPSCIENCE AKTIENGESELLSCHAFT, priority 2013, published 2016)
